Assay results: patent US20150030566A1, “ANTIMICROBIAL PEPTIDE COMPOSITIONS FOR PLANTS” (Stellenbosch University, priority 2012, published 2015)
Residues, ends and D or L forms follow the SMILES beside them.

How the values were obtained:
Botrytis cinerea = assay: Agar (gel) assay; assay type: cell-based; set-up: MIC + SEM: unit not given beside the values
Method: (§1) Microdilution broth and agar assays were used to assess the antifungal activity of the cyclic decapeptides in liquid media and on solid (gel) media, respectively.
(§2) The antibacterial activity of the tyrocidines and gramicidin S against all the bacteria tested was determined by the methods described by Du Toit E A and Rautenbach M (2000) J. Microbiol. Methods, 42, 159-165. The antifungal activity of the tyrocidines against all the […] tested was determined by the methods described by Troskie A M, Vlok N M and Rautenbach M (2012) J. Microbiol. Methods, 91, 551-558.

fungal pathogens [1] = assay: Sterilization of field-gathered grapevine material for plant cultures; assay type: in vivo; conditions: in the washing step or in the growth media; without a major detrimental effect to the plant material; results not shown
Method: (§3) The Trc mix and GS were also tested for use in the sterilization of field-gathered grapevine material for use in plant cultures.

P. digitatum = assay: Preliminary trials on oranges, wound infections; assay type: in vivo; conditions: 50 mg/L (50 ppm)
Method: Promising results in preliminarily trials on oranges have also been observed, with 50% and 80% less wound infections by P. digitatum using 50 mg/L (50 ppm) Trc mix and GS, respectively.

fungal pathogens [2] = assay: Plant culture assay, fungal pathogens in growth media; assay type: in vivo; conditions: without a major detrimental effect to the plant material
Method: as §3
Grapevine tissue culture plants were transferred to MS medium containing GS or Trc mix at a concentration of 15 μg/mL and incubated at 25° C. with a 16 h/8 h day night cycle. The growth and development of the grapevine plantlets were monitored and compared to the control set of plants which were maintained on MS-medium without GS or Trc mix.

Fusarium solani = assay: Microdilution broth assay; assay type: cell-based; set-up: MIC against F. solani in PDB (n): unit not given beside the values
Method: as §1, §2

Fusarium oxysporum = assay: Microdilution broth assay; assay type: cell-based
Method: as §1, §2

[3] = tested on: Penicillium expansum (peach isolate); assay: Microdilution broth assay; assay type: cell-based
Method: as §1, §2

[4] = tested on: Aspergillus fumigatus ATCC 204305; assay: Microdilution broth assay; assay type: cell-based
Method: as §1, §2

Fusarium verticilliodes = assay: Microdilution broth assay; assay type: cell-based
Method: as §1, §2

[5] = tested on: Penicillium digitatum (citrus isolate); assay: Microdilution broth assay; assay type: cell-based
Method: as §1, §2

[6] = tested on: Penicillium glabrum (wood isolate); assay: Microdilution broth assay; assay type: cell-based
Method: as §1, §2

Phomopsis viticola = assay: Agar assay; assay type: cell-based; set-up: unit not given beside the values
Method: as §1, §2

[7] = tested on: Micrococcus luteus NCTG 8340; assay: Agar assay; assay type: cell-based; set-up: unit not given beside the values
Method: as §1, §2

Escherichia coli HB101 = assay: Agar assay; assay type: cell-based; set-up: unit not given beside the values
Method: as §1, §2

[8] = tested on: Talaromyces ramulosus (peach isolate); assay: Agar assay; assay type: cell-based; set-up: unit not given beside the values
Method: as §1, §2

[9] = tested on: Cylindrocarpon liriodendri; assay: Agar assay; assay type: cell-based; set-up: unit not given beside the values
Method: as §1, §2

Delphinium flowers = assay: Cut flower trials, Delphinium; assay type: in vivo, Delphinium hybrid
Method: Trials with Delphinium flowers and 25 mg/L and 50 mg of GS or Trc mix and GS+Trc mix (50 mg/L combined concentration), were conducted.
Cut flower trials on mini hybrids of the African daisy (Gerbera hybrid) and blue larkspur (Delphinium hybrid) were conducted on 3-day old flowers. Flowers were prepared by cutting 3-5 cm of each stem and each placed separately in a measuring flask with 100 mL containing either no additive, Trc mix (35 mg/L for Gerbera and 25 mg/l for Delphinium), GS (35 mg/L for Gerbera and 25 mg/L for Delphinium), Trc mix+GS (combined 70 mg/L for Gerbera and combined 50 mg/L for Delphinium) or commercial additive for flower preservation. Flowers (6-12 per trial) were kept in a room with both natural and fluorescent lighting (16 hours light/day) at 22±1° C. The volume of water was monitored every 24 hours and noted for each flower.
Flower condition was rated from 0 to 5, with 0=dead, 1=flower petals dehydrated, closed and drooping, 2=flower still partially open but dehydrated and drooping, 3=flower starts drooping, petals soft, 4=some petals becoming soft, flower still in good condition and 5=flower is in pristine condition with taught petals and stem/leaves.

bacteria = assay: Sterilization of field-gathered grapevine material, antibacterial efficacy; assay type: in vivo; conditions: selected cases
Method: as §3

Q: `CC(C)C[C@@H]1NC(=O)[C@H](CCCN)NC(=O)[C@H](C(C)C)NC(=O)C2CCCN2C(=O)[C@@H](Cc2ccccc2)NC(=O)[C@H](CC(C)C)NC(=O)[C@H](CCCN)NC(=O)[C@H](C(C)C)NC(=O)C2CCCN2C(=O)[C@@H](Cc2ccccc2)NC1=O` (stereo partly drawn) [GS, Cyclo-(VOLfPVOLfP)] (HELM PEPTIDE1{L.[dF].[O=C(C1CCCN1[*:1])[*:2]].V.[Orn].L.[dF].[O=C(C1CCCN1[*:1])[*:2]].V.[Orn]}$PEPTIDE1,PEPTIDE1,1:R1-10:R2$$$V2.0) was tested. Which “MIC + SEM” value (Botrytis cinerea; Agar, Botrytis cinerea) did it give?
A: 2.5 ± 0.3

Q: What about the “IC50 ± SEM” value (Botrytis cinerea; B. cinerea on PDA) of the same compound?
A: 2.0 ± 0.3 µg/mL

Q: And the “MIC ± SEM” value (Botrytis cinerea; B. cinerea on PDA)?
A: 2.8 ± 0.3 µg/mL

Q: What about the “IC50 ± SEM” value (Botrytis cinerea; B. cinerea on YTSA) of the same compound?
A: 4.5 ± 1.1 µg/mL

Q: And the “MIC ± SEM” value (Botrytis cinerea; B. cinerea on YTSA)?
A: 8.2 ± 1.8 µg/mL

Q: What about the “concentration sufficient to eliminate fungal pathogens” value (fungal pathogens [1]) of the same compound?
A: 20 mg/L

Q: What about the “less wound infections by P. digitatum” value (P. digitatum) of the same compound?
A: 80%

Q: What about the “concentration sufficient to eliminate fungal pathogens in the growth media” value (fungal pathogens [2]) of the same compound?
A: 15 mg/L

Q: And the “MIC + SEM” value (Fusarium solani; Broth, Fusarium solani)?
A: 2.5 ± 0.1

Q: And the “MIC against F. solani in PDB (n)” value (Fusarium solani; potato dextrose broth (low salt PDB))?
A: 2.2 ± 0.1

Q: And the “MIC + SEM” value (Fusarium oxysporum)?
A: 2.6 ± 0.2

Q: What about the “MIC + SEM” value [3] of the same compound?
A: 3.7 ± 0.3

Q: And the “MIC + SEM” value [4]?
A: 8.6 ± 0.7

Q: What about the “MIC + SEM” value (Fusarium verticilliodes) of the same compound?
A: 3.5 ± 0.3

Q: What about the “MIC + SEM” value [5] of the same compound?
A: 3-4

Q: What about the “MIC + SEM” value [6] of the same compound?
A: 4.0 ± 0.5

Q: What about the “MIC + SEM” value (Phomopsis viticola) of the same compound?
A: <10

Q: What about the “MIC + SEM” value [7] of the same compound?
A: 6

Q: What about the “MIC + SEM” value (Escherichia coli HB101) of the same compound?
A: 40

Q: And the “MIC + SEM” value [8]?
A: 3.6 ± 0.3

Q: And the “MIC + SEM” value [9]?
A: <10

Q: And the phytotoxicity (Delphinium flowers; 25 mg/L)?
A: did not show overt phytotoxicity

Q: What about the phytotoxicity (Delphinium flowers; 50 mg/L) of the same compound?
A: proved to be phytotoxic

Q: What about the antibacterial efficacy (bacteria) of the same compound?
A: good antibacterial activity
